We go through three compounds from US6448256B1, “Antibiotic prodrugs” (University of Massachusetts, priority 1999, dated 2002).

A short description of data set [1]: Plasma pharmacokinetics after intravenous administration to mice. It is filed as in vivo. Conditions: for half-life: mouse, plasma, 25 mg/kg. On the procedure:
(d) Elimination halfife and apparent volume of distribution. An appropriate dose of each agent (the maximum permitted by the results of the above dose/toxicity studies) is injected via the tail vein to a series of mice (e.g., 12). At specific times following injection (e.g., 10, 20, 30, 45, 90, and 150 minutes), mice (e.g., a pair) are restrained in DecapiCones and decapitated, and their blood collected individually by exsanguination into a sterile test tube.
The blood samples are centrifuged to yield clear plasma (yield: 0.4-0.6 ml per mouse). Approximately 0.2 ml of the plasma sample are used for HPLC analysis, using conditions established herein for quantitation of the compound. The individual plasma levels for each time point are averaged, and the data are analyzed to estimate Vd and half-life by established methods (Gibaldi, M. and D. Perrier. Pharmacokinetics. Marcel Dekker, Inc., New York, 1975).
Solutions of Val-B-EMAU in saline were next injected into the tail veins of mice at a dose of 25 mg/kg body weight. Animals were sacrificed at various times after dosing, and plasma was isolated and subjected to HPLC analysis.
Each value plotted in FIG. 3 represents the average of four measurements, each in a different animal.

A further data set concerns MRSA. In words: MIC against methicillin-resistant S. aureus strain MRSA / MRSA1. It is filed as cell-based. Conditions: Table 2. On the procedure:
(§1) To further investigate the antibacterial and/or DNA pol III inhibitory activity of various drug compounds, various ester-containing moieties N-linked to the EMAU core were produced as described in Example 1. These prodrugs were assayed for inhibition of B. subtilis DNA pol III and antibiotic activity against a number of bacteria.
(§2) The minimal inhibitory concentrations (MICs) of the four N3-substituted agents and EMAU were determined for B. subtilis (BS), methicillin-sensitive and resistant S. aureus (SA & MRSA), vancomycin-sensitive and resistant E. fecalis (EF& VREF), vancomycin-resistant E. fecium (VREF*), and E. coli (EC) as a Gram-negative control.

Data set [2] in a line: Prodrug conversion in mouse plasma in vitro (HPLC). The data set is classed as in vitro ADME. The method, then:
(§3) The conversion rate of prodrugs can be measured by first establishing a reverse phase HPLC method for the detection of both prodrug and drug in a biological sample such as plasma or serum. A stock solution of prodrug, usually in saline, is diluted 1:5 in animal plasma or saline. […] If necessary, the sample can be thawed in a 37° C. water bath. Aliquots of the diluted sample are taken at 15, 30, 45, 60, 90, 120, and 180 minutes. Longer time points are usually needed for saline solutions because the rates of spontaneous hydrolysis are much longer than for enzyme-catalyzed hydrolysis. The aliquots are analyzed at a 1:10 dilution using HPLC, and the fraction of prodrug which has been converted at each time point calculated.
(§4) The rate of formation of the drug and the rate of decay of the prodrug had doubling and half-life times, respectively, of about 30 minutes. In contrast, the estimated half-life of Val-B-EMAU in physiological saline at 37° C. was greater then 5000 hours. The mechanism for the decomposition of Val-B-EMAU by plasma is presumed to involve esterases in the circulation.
(§5) To further define the conversion rate of Val-B-EMAU (4a), the prodrug was incubated in 80% mouse plasma.

Data set [3] is described as follows: Prodrug stability in physiological saline. The data set is classed as physicochemical. The method, then: as §3, §4, §5
Another data set in a line: Solubility in water. It is filed as physicochemical. Particulars: 25° C. An excerpt: The prodrug 3-(L-valylbutyl)-EMAU (Val-B-EMAU, 4a) was synthesized as a hydrochloride. The structure was confirmed by NMR. The compound had high solubility in water. […] Two different synthesis methods were used.
Another data set relates to E. coli. Nature of the data set: MIC against E. coli (Gram-negative control). The data set is classed as cell-based. Conditions: Table 2. The method, then:
as §1, §2

A further data set has as its target B. subtilis DNA pol III (Bacillus subtilis, UniProt P13267). Nature of the data set: Inhibition of B. subtilis DNA pol III (Ki). The data set is classed as biochemical. On the procedure: as §1
The competitive inhibitor constants (Ki) of selected EMAU compounds were determined with three different pol Ills: the pol III enzyme from Bacillus subtilis (BS pol III), and the pol III enzymes of the clinically relevant pathogens, Enterococcus fecalis (EF pol III) and Staphylococcus aureus (SA pol 111).

Another data set deals with MRSA2. Nature of the data set: MIC against methicillin-resistant S. aureus strain MRSA2. The data set is classed as cell-based. Particulars: Table 2. On the procedure:
as §1, §2

In data set [4] the test system is S. aureus. Nature of the data set: MIC against S. aureus (methicillin-sensitive). It is filed as cell-based. Conditions: for MIC: Staphylococcus aureus. On the procedure:
as §1, §2

The subject of data set [5] is vancomycin-resistant E. fecium. In words: MIC against vancomycin-resistant E. fecium (VRE, VREF*). The data set is classed as cell-based. Particulars: Table 2, vancomycin-resistant E. fecium. On the procedure: as §1, §2
The next data set concerns E. fecalis. Nature of the data set: MIC against E. fecalis. It is filed as cell-based. Particulars: for MIC: Table 6, read-out: MIC E. fecalis. The method, then: as §1, §2
The next data set concerns B. subtilis. In words: MIC against B. subtilis. Conditions: for MIC: Bacillus subtilis, Table 6, read-out: MIC B. subtilis. It is filed as cell-based. On the procedure:
as §1, §2

The subject of another data set is E. fecium. In words: MIC against E. fecium. The data set is classed as cell-based. Conditions: Table 2. On the procedure:
as §1

In data set [6] the test system is S. aureus (methicillin-sensitive Smith strain). In words: ip/ip mouse protection against lethal S. aureus infection. It is filed as in vivo, mice. Particulars: 10 mg/kg, four day experiment, ten animals. On the procedure:
Step 1: Screening—Each candidate prodrug is screened for activity in an ip/ip S. aureus protection model. Candidates that display efficacy equivalent to that of HB-EMAU and HB-IMAU are selected for advanced pharmacokinetic analysis and application in the more relevant mouse thigh model of infection.
The efficacy of the propyl derivatives was tested against murine staphylococcal infection in vivo. A simple “ip/ip” system was used, in which 20 gram mice (10 each) were injected ip (intraperitoneally) with a lethal dose (2.3×10^7 CFU) of the methicillin-sensitive Smith strain of S. aureus. The mice were then immediately injected ip with the antibiotic agent as a 1:9 mixture of DMSO:peanut oil. Vancomycin was used as the positive control drug.
Both hydroxybutyl compounds were tested at 10 mg/kg in the mouse protection experiment against lethal S. aureus infection described in Example 4 above.

For data set [7], the system named is S. aureus. In words: Bactericidal activity (killing) against S. aureus. It is filed as cell-based. Conditions: 2, 4, and 8× MIC, killing continued for 24 hours.
Data set [8] is described as follows: Plasma pharmacokinetics after oral administration to mice. It is filed as in vivo. On the procedure: (e) Uptake from subcutaneous (sc), intraperitoneal (ip), and oral (Po) routes, Oral dosing can be performed by gavage with a small stomach tube to DecapiCone-restrained animals. […] At specific times following administration (e.g., 15, 30, 60, 90, 150 and 240 minutes), two mice are sacrificed and their plasma samples prepared and analyzed by HPLC as described above in (d). Following decapitation, the site of drug application in each animal's carcass is dissected and inspected visually for evidence of precipitation.
Each value plotted in FIG. 4 is an average of two measurement, each in a different animal.

The mark [9] stands for this setting: Table 1, read-out: Ki B. subtilis pol III.
Where [10] appears, read: Table 6, read-out: Ki, inhibition constant vs. B. subtilis DNA pol III.

For orientation: half-life means the time in which the quantity being followed falls by half. Usually solubility stands for how much of the substance goes into solution per volume. As usually defined, the Ki is the equilibrium dissociation constant of an inhibitor or competing ligand from its target. The term MIC denotes the least concentration at which growth counts as inhibited.

≈ marks a conversion by molar mass, not a printed value. Where “and” joins values, the source holds several entries; their conditions need not be identical. Identical values can stand only once. Like-named read-outs stand apart in the source and are kept apart here.

Chain of B. subtilis DNA pol III (P13267 whole entry): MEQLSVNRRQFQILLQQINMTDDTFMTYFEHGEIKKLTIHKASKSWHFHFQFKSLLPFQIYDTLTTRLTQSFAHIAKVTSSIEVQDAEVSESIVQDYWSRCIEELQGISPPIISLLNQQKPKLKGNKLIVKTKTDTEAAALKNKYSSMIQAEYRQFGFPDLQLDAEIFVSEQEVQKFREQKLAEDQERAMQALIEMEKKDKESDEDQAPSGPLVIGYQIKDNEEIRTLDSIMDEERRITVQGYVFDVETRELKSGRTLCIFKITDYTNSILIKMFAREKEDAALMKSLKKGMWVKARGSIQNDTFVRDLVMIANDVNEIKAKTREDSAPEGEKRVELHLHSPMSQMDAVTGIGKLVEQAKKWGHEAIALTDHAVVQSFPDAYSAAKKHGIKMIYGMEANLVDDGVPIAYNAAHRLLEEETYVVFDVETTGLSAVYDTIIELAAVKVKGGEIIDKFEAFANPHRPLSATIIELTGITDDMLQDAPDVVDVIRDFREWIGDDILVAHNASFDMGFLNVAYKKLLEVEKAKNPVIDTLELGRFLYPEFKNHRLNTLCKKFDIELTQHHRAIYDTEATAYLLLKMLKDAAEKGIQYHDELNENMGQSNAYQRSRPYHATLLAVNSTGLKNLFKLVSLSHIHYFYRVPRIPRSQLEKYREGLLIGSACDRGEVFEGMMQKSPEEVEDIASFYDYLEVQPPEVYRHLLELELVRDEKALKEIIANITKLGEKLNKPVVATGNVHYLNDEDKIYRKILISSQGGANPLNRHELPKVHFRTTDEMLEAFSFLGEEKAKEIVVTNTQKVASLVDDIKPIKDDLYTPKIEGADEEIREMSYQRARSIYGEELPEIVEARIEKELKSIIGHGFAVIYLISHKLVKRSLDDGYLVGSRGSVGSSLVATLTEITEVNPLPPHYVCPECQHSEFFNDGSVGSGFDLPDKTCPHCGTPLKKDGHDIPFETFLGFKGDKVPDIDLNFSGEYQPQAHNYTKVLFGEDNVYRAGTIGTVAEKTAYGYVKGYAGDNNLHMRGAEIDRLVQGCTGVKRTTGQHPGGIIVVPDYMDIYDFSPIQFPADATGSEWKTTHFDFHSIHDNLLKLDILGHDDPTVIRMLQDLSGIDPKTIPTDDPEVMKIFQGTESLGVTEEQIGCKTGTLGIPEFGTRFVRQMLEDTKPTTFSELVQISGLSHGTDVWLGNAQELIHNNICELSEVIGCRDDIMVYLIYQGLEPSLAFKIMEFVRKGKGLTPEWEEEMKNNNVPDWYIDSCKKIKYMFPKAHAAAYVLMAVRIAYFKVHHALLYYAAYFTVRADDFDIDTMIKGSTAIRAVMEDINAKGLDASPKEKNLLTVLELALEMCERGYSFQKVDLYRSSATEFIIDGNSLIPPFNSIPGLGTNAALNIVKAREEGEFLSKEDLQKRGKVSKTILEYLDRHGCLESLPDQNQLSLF

As for `CCc1cc(Nc2cc(=O)n(CCCCOC(=O)[C@@H](N)C(C)C)c(=O)[nH]2)ccc1C` [Val-B-EMAU, 3-(L-valylbutyl)-EMAU], the half-life is 34 min in data set [1] (intravenous, tail vein, 25 mg/kg in saline (FIG. 1), read-out: half life of Val-B-EMAU in plasma); 37.8 min in [2] (80% mouse plasma, 37° C. (FIG. 2), read-out: prodrug half-life); ~30 min in [2] (mouse plasma, 37° C., HPLC, read-out: half-life of decay of the prodrug); > 208 days in [3] (37° C., read-out: estimated half-life in physiological saline); 18.8 to 20.8 days in data set [3] (b125, read-out: half-life in physiological saline). Moreover, in the data set on MRSA, the “MIC MRSA” value was found to be 33 μ/ml. For the same compound, the solubility in the data set “Solubility in water” is > 10000 µg/mL. For the same compound, in the data set with E. coli, the “MIC E. coli” value is given as >33 μ/ml. Also, the Ki turned out to be 530 nM at B. subtilis DNA pol III (setting [9]) and 530 nM at B. subtilis DNA pol III (Table 2, prodrugs having the EMAU core, read-out: Ki B. subtilis DNA Pol III). Besides, the “MIC MRSA2” value in the data set with MRSA2 is on record as 33 μ/ml. In addition, the MIC in the data set on S. aureus [4] (Table 1, read-out: MIC S. aureus) is < 20 µg/mL. Moreover, the “MIC S. aureus” value against S. aureus [4] (Table 2) amounted to 17 μ/ml. Moreover, the “MIC VRE” value in [5] is 8 μ/ml. Also, the “MIC E. fecalis” value against E. fecalis (Table 2) turned out to be 17 μ/ml. The “MIC B. subtilis” value with B. subtilis (Table 2) is 4 μ/ml. For the same compound, the “MIC E. fecium” value in the data set on E. fecium came out at 33 μ/ml.
As for `CCc1cc(Nc2cc(=O)n(CCCCO)c(=O)[nH]2)ccc1C` [HB-EMAU], the “time at which HB-EMAU concentration peaked” value in data set [1] (after iv Val-B-EMAU 25 mg/kg (FIG. 1)) is “about 20 minutes”. The half-life is ~43 min in [1] (iv, after iv Val-B-EMAU 25 mg/kg (FIG. 1), read-out: half life of HB-EMAU) and 15.6 min in data set [1] (iv, after iv Val-B-EMAU (4a) 25 mg/Kg (FIG. 3), average of four measurements, read-out: elimination half-life of HB-EMAU). For the same compound, in [2] (mouse), the “doubling time of formation of the drug” value is “about 30 minutes”. Further, the “animals protected from death” value in data set [6] was “all ten animals”. Moreover, the solubility in “Solubility in water” is ~30 µg/mL (≈ 94.5 µM). The values for the inhibition constant Ki on B. subtilis DNA pol III (setting [9]) and at B. subtilis DNA pol III (setting [10]) were 190 nM and 180 nM, respectively. Also, the values for the minimal inhibitory concentration (MIC) in the data set on S. aureus [4] (read-out: MIC S. aureas), with E. fecalis and with B. subtilis were 6 µg/mL (≈ 18.9 µM), 6 µg/mL (≈ 18.9 µM) and < 3.1 µg/mL, respectively. Moreover, the “bactericidal for S. aureus” value in the data set with S. aureus [7] is on record as “bactericidal”. Also, in data set [8] (HB-EMAU administered directly), the “area under the curve for HB-EMAU, estimated” value is 0.1%. Moreover, the “peak concentration of HB-EMAU” value in data set [8] (mice, after oral VB-EMAU 100 mg/Kg) is 11.2 μM and 3.5 μg/ml. In [8] (mice, after oral Val-B-EMAU (4a) 100 mg/Kg), the “plasma HB-EMAU at four hours after administration” value is “no detectable”. In data set [8] (mice, after oral Val-B-EMAU (4a) 100 mg/Kg in physiological saline (FIG. 4)), the “time at which plasma level of HB-EMAU peaked” value came out at 60 min.
For the compound `Cc1ccc(Nc2cc(=O)n(CCCCO)c(=O)[nH]2)cc1I` [HB-IMAU], the “animals protected from death” value in data set [6] is “nine of ten animals”. Moreover, at B. subtilis DNA pol III (setting [10]), the Ki was 220 nM. In addition, the MIC in the data set with S. aureus [4] (read-out: MIC S. aureas) is 6 µg/mL (≈ 14.4 µM); in the data set on E. fecalis it was 6 µg/mL (≈ 14.4 µM); with B. subtilis, < 3.1 µg/mL. Also, in the data set on S. aureus [7], the “bactericidal for S. aureus” value was “bactericidal”.
